Measured values taken from publication PMC10878397, “Development of Potent Dual BET/HDAC Inhibitors via Pharmacophore Merging and Structure-Guided Optimization” (ACS Chemical Biology, 2024).

What was measured:
[1] = tested on: HEXIM1 mRNA in PaTu8988T cells; test: Quantitative RT-PCR of BET-inhibition biomarker; type: cell-based; details: 6 h, 1 μΜ compound
Method: Total RNA was extracted from cell culture using the Maxwell RSC simply RNA Cells Kit (Promega) according to the manufacturer’s protocol. cDNA was synthesized using PrimeScript Reverse Transcriptase (TakaRa) and amplified using homemade PCR master mix. The amplicon was detected by EvaGreen Dye using a LightCycler 480 instrument (Roche). PCR conditions were 5 min at 95 °C, followed by 45 cycles of 95 °C for 10 s, 59 °C for 10 s, and 72 °C for 20 s. The relative gene expression levels were normalized to GUSB and calculated using the 2^–ΔΔC^t method.

[2] = tested on: zinc-dependent HDACs (HDAC1–11); test: HDAC selectivity profile, whole panel; type: biochemical, human; details: 1 and 10 μM
Method: (§1) The reactions were performed by Reaction Biology using a protease-coupled assay with fluorogenic substrates where, after deacetylation by the HDAC and subsequent proteolytic digest, the free fluorophore 7-amino-4-methyl coumarin (AMC) can be quantified.[60] The following substrates were used for activity assays: HDACs 1, 2, 3, and 6: fluorogenic tetrapeptide from p53 residues 379–382 (RHKK(Ac) AMC); HDACs 4, 5, 7, 9, and 11: fluorogenic HDAC class2a substrate (trifluoroacetyl lysine); HDAC8: twice acetylated fluorogenic tetrapeptide from p53 residues 379–382 (RHK(Ac) K(Ac) AMC); HDAC10: Ac-spermidine-AMC. Data are given as % residual activity compared with the uninhibited control reaction.

HDAC4 = biological target: T1, HDAC4 (Homo sapiens, UniProt P56524); test: HDAC selectivity profile (Reaction Biology); type: biochemical; details: no inhibitor control as 100%, read-out: % Enzyme activity HDAC4
T1 construct: purchased Reaction Biology
Method: as §1

HDAC11 = biological target: T2, HDAC11 (Homo sapiens, UniProt Q96DB2); test: HDAC selectivity profile (Reaction Biology); type: biochemical; details: no inhibitor control as 100%
T2 construct: purchased Reaction Biology
T2 sequence (Q96DB2 1-347): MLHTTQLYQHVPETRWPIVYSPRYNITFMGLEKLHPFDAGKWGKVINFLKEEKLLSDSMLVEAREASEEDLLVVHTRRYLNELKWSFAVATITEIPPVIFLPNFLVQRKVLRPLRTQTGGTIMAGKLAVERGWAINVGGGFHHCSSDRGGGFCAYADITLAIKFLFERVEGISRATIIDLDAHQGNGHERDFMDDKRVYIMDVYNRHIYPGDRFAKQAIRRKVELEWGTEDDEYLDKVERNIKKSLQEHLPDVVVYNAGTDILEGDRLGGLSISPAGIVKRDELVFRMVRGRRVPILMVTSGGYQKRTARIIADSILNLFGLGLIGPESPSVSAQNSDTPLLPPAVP
Method: as §1

HDAC10 = biological target: T3, HDAC10 (Homo sapiens, UniProt Q969S8); test: HDAC selectivity profile (Reaction Biology); type: biochemical; details: no inhibitor control as 100%, read-out: % Enzyme activity HDAC10
T3 construct: purchased Reaction Biology
Method: as §1

HDAC9 = biological target: T4, HDAC9 (Homo sapiens, UniProt Q9UKV0); test: HDAC selectivity profile (Reaction Biology); type: biochemical; details: no inhibitor control as 100%, read-out: % Enzyme activity HDAC9
T4 construct: purchased Reaction Biology
T4 sequence (Q9UKV0 whole entry): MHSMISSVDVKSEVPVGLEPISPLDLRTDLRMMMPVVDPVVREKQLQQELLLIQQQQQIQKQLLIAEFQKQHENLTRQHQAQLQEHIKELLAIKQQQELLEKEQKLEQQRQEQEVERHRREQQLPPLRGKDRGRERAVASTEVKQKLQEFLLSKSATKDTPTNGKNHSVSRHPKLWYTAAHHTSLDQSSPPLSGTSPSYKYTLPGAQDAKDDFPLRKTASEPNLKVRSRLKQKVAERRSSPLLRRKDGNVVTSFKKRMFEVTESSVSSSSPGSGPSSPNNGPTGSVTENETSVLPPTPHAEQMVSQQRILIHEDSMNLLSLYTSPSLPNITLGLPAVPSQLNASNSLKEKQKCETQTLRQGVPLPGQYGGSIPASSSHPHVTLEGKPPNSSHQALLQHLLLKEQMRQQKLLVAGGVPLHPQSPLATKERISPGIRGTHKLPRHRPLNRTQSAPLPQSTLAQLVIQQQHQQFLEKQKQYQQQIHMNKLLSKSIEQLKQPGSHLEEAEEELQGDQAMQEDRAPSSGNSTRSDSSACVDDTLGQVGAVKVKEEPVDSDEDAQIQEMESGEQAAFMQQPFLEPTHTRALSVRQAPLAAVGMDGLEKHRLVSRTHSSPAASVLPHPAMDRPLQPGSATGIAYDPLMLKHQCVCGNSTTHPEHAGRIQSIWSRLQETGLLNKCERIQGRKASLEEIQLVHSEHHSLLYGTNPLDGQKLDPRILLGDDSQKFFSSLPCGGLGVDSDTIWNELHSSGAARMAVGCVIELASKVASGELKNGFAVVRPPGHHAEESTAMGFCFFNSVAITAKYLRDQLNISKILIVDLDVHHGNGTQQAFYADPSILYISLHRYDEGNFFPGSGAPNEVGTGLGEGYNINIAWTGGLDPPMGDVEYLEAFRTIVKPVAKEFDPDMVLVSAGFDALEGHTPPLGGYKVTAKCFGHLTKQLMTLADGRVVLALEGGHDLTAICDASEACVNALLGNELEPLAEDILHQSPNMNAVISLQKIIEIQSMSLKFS
Method: as §1

HDAC6 = biological target: T5, HDAC6 (Homo sapiens, UniProt Q9UBN7); test: HDAC selectivity profile (Reaction Biology); type: biochemical; details: no inhibitor control as 100%, read-out: % Enzyme activity HDAC6
T5 construct: purchased Reaction Biology
T5 sequence (Q9UBN7 whole entry): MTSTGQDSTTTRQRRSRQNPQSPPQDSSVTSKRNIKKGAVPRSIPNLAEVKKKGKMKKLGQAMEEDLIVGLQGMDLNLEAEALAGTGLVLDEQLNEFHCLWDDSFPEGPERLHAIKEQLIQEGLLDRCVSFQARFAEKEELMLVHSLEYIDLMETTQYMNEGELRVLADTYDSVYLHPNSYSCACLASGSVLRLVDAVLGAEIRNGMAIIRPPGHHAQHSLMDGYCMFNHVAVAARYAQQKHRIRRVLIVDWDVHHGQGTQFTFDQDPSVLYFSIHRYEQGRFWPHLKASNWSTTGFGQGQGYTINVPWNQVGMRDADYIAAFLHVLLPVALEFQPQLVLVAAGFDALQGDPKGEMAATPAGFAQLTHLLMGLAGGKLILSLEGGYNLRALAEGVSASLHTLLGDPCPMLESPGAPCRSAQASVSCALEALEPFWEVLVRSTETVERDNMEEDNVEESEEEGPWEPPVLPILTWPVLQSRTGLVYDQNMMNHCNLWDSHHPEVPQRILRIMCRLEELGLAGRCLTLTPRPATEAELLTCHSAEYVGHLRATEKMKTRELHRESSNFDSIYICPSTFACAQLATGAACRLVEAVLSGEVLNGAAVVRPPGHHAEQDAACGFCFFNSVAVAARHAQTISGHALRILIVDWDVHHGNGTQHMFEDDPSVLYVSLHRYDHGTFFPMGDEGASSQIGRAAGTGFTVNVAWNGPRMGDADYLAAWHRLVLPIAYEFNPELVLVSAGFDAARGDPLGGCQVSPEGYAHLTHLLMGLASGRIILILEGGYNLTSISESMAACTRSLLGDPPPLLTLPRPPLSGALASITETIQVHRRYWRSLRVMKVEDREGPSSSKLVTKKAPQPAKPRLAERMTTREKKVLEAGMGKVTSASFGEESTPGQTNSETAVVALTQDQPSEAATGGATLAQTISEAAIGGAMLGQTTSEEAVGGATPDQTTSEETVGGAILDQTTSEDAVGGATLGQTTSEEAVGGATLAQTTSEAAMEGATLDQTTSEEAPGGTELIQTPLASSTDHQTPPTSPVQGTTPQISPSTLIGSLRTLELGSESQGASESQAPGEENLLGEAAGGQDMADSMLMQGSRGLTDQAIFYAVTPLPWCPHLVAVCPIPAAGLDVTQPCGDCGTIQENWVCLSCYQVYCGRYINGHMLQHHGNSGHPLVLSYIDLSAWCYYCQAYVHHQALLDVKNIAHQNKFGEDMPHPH
Method: as §1

HDAC7 = biological target: T6, HDAC7 (Homo sapiens, UniProt Q8WUI4); test: HDAC selectivity profile (Reaction Biology); type: biochemical; details: no inhibitor control as 100%, read-out: % Enzyme activity HDAC7
T6 construct: purchased Reaction Biology
Method: as §1

HDAC5 = biological target: T7, HDAC5 (Homo sapiens, UniProt Q9UQL6); test: HDAC selectivity profile (Reaction Biology); type: biochemical; details: no inhibitor control as 100%, read-out: % Enzyme activity HDAC5
T7 construct: purchased Reaction Biology
T7 sequence (Q9UQL6 whole entry): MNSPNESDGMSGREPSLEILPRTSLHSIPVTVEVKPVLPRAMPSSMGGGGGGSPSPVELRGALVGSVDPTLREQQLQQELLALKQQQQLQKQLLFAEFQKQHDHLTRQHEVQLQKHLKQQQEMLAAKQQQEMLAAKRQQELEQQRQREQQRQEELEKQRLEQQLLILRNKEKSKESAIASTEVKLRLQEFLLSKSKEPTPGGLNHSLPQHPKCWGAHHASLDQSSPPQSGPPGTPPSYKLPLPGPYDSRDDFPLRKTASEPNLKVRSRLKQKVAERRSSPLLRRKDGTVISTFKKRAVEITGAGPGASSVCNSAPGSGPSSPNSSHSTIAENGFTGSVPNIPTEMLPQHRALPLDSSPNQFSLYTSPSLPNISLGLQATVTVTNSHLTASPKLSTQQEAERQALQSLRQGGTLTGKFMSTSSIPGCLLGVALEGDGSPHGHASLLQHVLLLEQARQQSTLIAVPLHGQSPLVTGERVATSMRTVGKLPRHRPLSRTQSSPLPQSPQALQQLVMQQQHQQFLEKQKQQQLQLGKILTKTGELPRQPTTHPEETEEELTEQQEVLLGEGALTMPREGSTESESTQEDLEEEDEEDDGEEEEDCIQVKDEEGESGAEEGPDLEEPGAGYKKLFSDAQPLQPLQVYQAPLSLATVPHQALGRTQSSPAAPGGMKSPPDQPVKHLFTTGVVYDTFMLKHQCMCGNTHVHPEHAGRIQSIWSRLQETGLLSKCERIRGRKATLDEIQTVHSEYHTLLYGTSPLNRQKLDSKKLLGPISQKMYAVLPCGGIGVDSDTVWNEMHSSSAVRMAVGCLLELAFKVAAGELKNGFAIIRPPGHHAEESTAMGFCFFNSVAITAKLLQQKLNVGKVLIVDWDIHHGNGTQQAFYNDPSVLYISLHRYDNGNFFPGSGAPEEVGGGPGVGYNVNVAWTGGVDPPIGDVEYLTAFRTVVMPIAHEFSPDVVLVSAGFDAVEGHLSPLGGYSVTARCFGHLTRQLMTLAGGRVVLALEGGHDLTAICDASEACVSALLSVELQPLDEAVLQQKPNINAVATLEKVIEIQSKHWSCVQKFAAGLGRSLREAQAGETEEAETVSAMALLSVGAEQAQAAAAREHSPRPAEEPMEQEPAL
Method: as §1

HDAC8 = biological target: T8, HDAC8 (Homo sapiens, UniProt Q9BY41); test: HDAC selectivity profile (Reaction Biology); type: biochemical; details: no inhibitor control as 100%, read-out: % Enzyme activity HDAC8
T8 construct: purchased Reaction Biology
Method: as §1

HDAC3 = HDAC3 (Homo sapiens, UniProt O15379); test: HDAC selectivity profile (Reaction Biology); type: biochemical; set-up: purchased Reaction Biology; details: no inhibitor control as 100%
HDAC3, sequence (O15379 whole entry): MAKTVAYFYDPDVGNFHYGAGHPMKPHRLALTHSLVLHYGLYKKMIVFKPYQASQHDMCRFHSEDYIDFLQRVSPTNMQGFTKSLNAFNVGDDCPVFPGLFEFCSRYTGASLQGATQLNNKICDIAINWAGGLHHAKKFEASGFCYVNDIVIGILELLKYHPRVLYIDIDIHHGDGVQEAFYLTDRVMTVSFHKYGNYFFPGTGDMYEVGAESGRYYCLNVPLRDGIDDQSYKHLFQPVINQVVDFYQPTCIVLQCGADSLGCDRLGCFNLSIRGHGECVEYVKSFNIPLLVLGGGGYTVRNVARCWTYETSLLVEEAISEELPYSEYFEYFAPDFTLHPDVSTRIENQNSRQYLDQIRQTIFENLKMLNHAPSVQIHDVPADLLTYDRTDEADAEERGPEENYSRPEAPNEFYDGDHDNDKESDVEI
HDAC3, sequence (Q9Y618 395-489 partner limits assumed): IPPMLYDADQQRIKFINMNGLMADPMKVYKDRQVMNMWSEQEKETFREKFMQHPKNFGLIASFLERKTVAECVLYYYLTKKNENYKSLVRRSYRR
Method: as §1

HDAC2 = HDAC2 (Homo sapiens, UniProt Q92769); test: HDAC selectivity profile (Reaction Biology); type: biochemical; set-up: purchased Reaction Biology; details: no inhibitor control as 100%, read-out: % Enzyme activity HDAC2
HDAC2, sequence (Q92769 whole entry): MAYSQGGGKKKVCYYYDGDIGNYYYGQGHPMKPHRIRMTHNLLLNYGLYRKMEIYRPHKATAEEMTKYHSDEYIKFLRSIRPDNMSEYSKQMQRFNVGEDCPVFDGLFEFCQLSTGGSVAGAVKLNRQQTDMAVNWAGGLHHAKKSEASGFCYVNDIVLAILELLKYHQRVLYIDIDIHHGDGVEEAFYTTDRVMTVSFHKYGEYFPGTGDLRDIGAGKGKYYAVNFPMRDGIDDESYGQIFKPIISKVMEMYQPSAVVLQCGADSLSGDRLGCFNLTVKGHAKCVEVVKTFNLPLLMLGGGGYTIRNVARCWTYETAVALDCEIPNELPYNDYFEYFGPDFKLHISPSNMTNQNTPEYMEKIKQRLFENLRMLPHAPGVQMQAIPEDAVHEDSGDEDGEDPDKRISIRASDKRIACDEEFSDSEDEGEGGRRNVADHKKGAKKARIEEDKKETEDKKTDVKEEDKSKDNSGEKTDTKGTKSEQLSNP
Method: as §1

HDAC1 = HDAC1 (Homo sapiens, UniProt Q13547); test: HDAC selectivity profile (Reaction Biology); type: biochemical; set-up: purchased Reaction Biology; details: no inhibitor control as 100%, read-out: % Enzyme activity HDAC1
HDAC1, sequence (Q13547 whole entry): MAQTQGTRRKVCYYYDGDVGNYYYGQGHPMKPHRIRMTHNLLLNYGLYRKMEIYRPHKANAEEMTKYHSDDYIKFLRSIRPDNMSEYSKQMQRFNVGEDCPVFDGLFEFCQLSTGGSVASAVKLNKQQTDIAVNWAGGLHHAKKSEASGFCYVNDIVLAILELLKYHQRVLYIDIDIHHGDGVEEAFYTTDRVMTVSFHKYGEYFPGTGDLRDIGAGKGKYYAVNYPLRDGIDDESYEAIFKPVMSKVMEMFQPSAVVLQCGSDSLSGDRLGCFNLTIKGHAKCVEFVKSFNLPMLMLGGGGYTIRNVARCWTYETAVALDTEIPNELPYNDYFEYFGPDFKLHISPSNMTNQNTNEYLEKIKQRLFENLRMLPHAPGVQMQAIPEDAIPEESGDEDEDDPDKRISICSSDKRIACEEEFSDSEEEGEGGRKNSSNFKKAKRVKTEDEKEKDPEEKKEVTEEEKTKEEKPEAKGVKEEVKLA
Method: as §1

## Cn1cc(-c2ccc(C(=O)Nc3cc(-c4ccccc4)ccc3N)cc2)c2cc[nH]c2c1=O [NB503]
[1]
  HEXIM1 mRNA levels: strongest effect

## Cn1cc(-c2ccc(C(=O)Nc3cc(-c4ccccc4)ccc3N)nc2)c2cc[nH]c2c1=O [NB512]
[2]
  selectivity among zinc-dependent HDACs: high selectivity for HDAC1/2
HDAC4; 1 µM NB512
  remaining activity at 1 µM: 91.5%
HDAC4; 10 µM NB512
  remaining activity at 10 µM: 82.4%
HDAC11; 1 µM NB512, read-out: % Enzyme activity HDAC11
  remaining activity at 1 µM: 97.7%
HDAC11; 10 µM NB512
  % Enzyme activity HDAC11: 60%
HDAC11; 10 µM NB512, read-out: % Enzyme activity HDAC11
  remaining activity at 10 µM: 59.9%
HDAC10; 1 µM NB512
  remaining activity at 1 µM: 98.1%
HDAC10; 10 µM NB512
  remaining activity at 10 µM: 98.6%
HDAC9; 1 µM NB512
  remaining activity at 1 µM: 96.2%
HDAC9; 10 µM NB512
  remaining activity at 10 µM: 85%
HDAC6; 1 µM NB512
  remaining activity at 1 µM: 100%
HDAC6; 10 µM NB512
  remaining activity at 10 µM: 90.2%
HDAC7; 1 µM NB512
  remaining activity at 1 µM: 101%
HDAC7; 10 µM NB512
  remaining activity at 10 µM: 101%
HDAC5; 1 µM NB512
  remaining activity at 1 µM: 89.3%
HDAC5; 10 µM NB512
  remaining activity at 10 µM: 84.1%
HDAC8; 1 µM NB512
  remaining activity at 1 µM: 96.4%
HDAC8; 10 µM NB512
  remaining activity at 10 µM: 97.9%
HDAC3; 1 µM NB512, read-out: % Enzyme activity HDAC3
  remaining activity at 1 µM: 95.5%
HDAC3; 10 µM NB512
  % Enzyme activity HDAC3: 76%
HDAC3; 10 µM NB512, read-out: % Enzyme activity HDAC3
  remaining activity at 10 µM: 76.4%
HDAC2; 1 µM NB512
  remaining activity at 1 µM: 50.3%
HDAC2; 10 µM NB512
  remaining activity at 10 µM: 13.5%
HDAC1; 1 µM NB512
  remaining activity at 1 µM: 20.6%
HDAC1; 10 µM NB512
  remaining activity at 10 µM: 10.3%
